B1: recombinant human Ang1 (rhAng1) (ligand, UniProt Q15389 16-498, looked up)
chain: HIGCSNQRRSPENSGRRYNRIQHGQCAYTFILPEHDGNCRESTTDQYNTNALQRDAPHVEPDFSSQKLQHLEHVMENYTQWLQKLENYIVENMKSEMAQIQQNAVQNHTATMLEIGTSLLSQTAEQTRKLTDVETQVLNQTSRLEIQLLENSLSTYKLEKQLLQQTNEILKIHEKNSLLEHKILEMEGKHKEELDTLKEEKENLQGLVTRQTYIIQELEKQLNRATTNNSVLQKQQLELMDTVHNLVNLCTKEGVLLKGGKREEEKPFRDCADVYQAGFNKSGIYTIYINNMPEPKKVFCNMDVNGGGWTVIQHREDGSLDFQRGWKEYKMGFGNPSGEYWLGNEFIFAITSQRQYMLRIELMDWEGNRAYSQYDRFHIGNEKQNYRLYLKGHTGTAGKQSSLILHGADFSTKDADNDNCMCKCALMLTGGWWFDACGPSNLNGMFYTAGQNHGKLNGIKWHYFKGPSYSLRSTTMMIRPLDF
notes: angiopoietin-1, human, recombinant; also called angiopoietin-1; source: bought: R&D Systems (named for the Boyden chamber experiments)

What was measured:
Tie2 in HMVEC-DBls = assay: in vitro Tie2 phosphorylation (immunoprecipitation/immunoblot), HMVEC-DBl; format: cell-based, human; settings: VT 10 ng/mL vs Ang1 200 ng/mL, presence or absence of serum/supplements, Fig7F
Source text: Figure 7 In vitro Vasculotide vs. Ang1 stimulations: effects on Tie2 receptor phosphorylation in primary endothelial cells—HUVECs (A-E) and HMVEC-DBls (F) • A–F Primary human umbilical vein endothelial cells (HUVECs) or primary human dermal microvascular endothelial cells (HMVEC-DBls) were stimulated at 80% confluency with Vasculotide (treatment), Ang1 (positive control; ligand of Tie2), PBS (vehicle control), or VEGF (negative control; non-ligand of Tie2). Tie2 was immunoprecipitated from cell lysates and immunoblotted for total Tie2 or phosphotyrosine. […] Source data are available online for this figure. […]
Nodule areas were then […]
unit converted (to μm2) and normalized to total lung section area (including air spaces) using ROI measurements from ImageJ software (NIH).
7. Histological assessment of primary tumor viability and hypoxia
5-μm thick sections of PFA-fixed paraffin-embedded mammary fat pad tumors were subjected to: (i) standard hematoxylin and eosin (H&E) staining to visualize viable vs. necrotic regions; or (ii) standard IHC staining with a goat anti-human carbonic anhydrase IX (CAIX or CA9) antibody (R&D Systems AF2188, 1:80 dilution) plus hematoxylin counterstain to visualize hypoxic regions. […]
IHC staining for CAIX further marks a hypoxic band at the edge of the viability rim bordering the necrotic core – the thickness of this hypoxic edge was averaged over 12 measurements spaced 30o apart (see Fig. 5E).
8. Western immunoblotting for total or phosphorylated Tie2
Cultured ECs and TCs were lysed in RIPA lysis buffer as previously described (Bogdanovic et al, 2006).
Lung/ liver/ kidney tissues, which had been snap-frozen in liquid nitrogen once harvested from mice, were homogenized in RIPA lysis buffer (50 mM Tris-HCl pH 7.5, 150 mM NaCl, 1% Igepal, 0.5% sodium deoxycholate, 0.1% SDS, 1 mM Na3VO4 and protease inhibitors) at 4 °C. […]
(§1) Semi-quantitative densitometry analysis of immunoblots was performed using the ChemiGenius2 bioimaging system and GeneSnap/GeneTools software (Syngene). […]

[1] = test system: human Tie2-Fc (extracellular domain of Tie2); assay: pull-down assay, human Tie2-Fc; format: binding; settings: human Tie2-Fc on protein A sepharose; rhAng1 20 ng or VT 100 ng, pH 7.4, 4°C; Fig9A,B
Source text: To better understand the difficulties we had in observing Tie2 activation by VT, we sought to characterize the binding affinity and kinetics of VT to Tie2. Purified human or mouse Tie2-Fc (i.e., Fc-conjugated extracellular domains of Tie2) were first coupled to protein A sepharose beads for pull-down experiments (Fig9A and B) or immobilized on a Biacore CM5 sensor chip for surface plasmon resonance (SPR) experiments (Fig9C and Supplementary Fig S3).
Figure 9 Binding of Vasculotide vs. Ang1 variants to the extracellular domain of Tie2 • A–B Pull-down assay. Input ligands—rhAng1 (A) and VT (B)—were incubated with either protein A sepharose beads only, bead-conjugated mouse Tie2-Fc (mTie2), or bead-conjugated human Tie2-Fc (hTie2). […] The ‘unbound’ fraction is 7% of residual/free ligands remaining in the supernatant. • C Quantitative kinetics analysis by SPR. All analytes were run at increasing concentrations of 0.625, 1.25, 2.5, 5, and 10 nM, at 37°C and pH 7.4. […] Source data are available online for this figure. […]
as §1

Row | Molecule | Tie2 phosphorylation (Tie2 in HMVEC-DBls) | Tie2 phosphorylation (Tie2 in HMVEC-DBls; listed as VT) | pull-down by Tie2-Fc [1]
1 | CHHHRHSF [Vasculotide, 4-armed maleimide-functionalized polyethylene glycol (PEG) backbone to link together four cysteine-capped T7 peptides, that is, CHHHRHSF] | did not activate Tie2 receptors in HMVEC-DBls | did not have similar activity as equimolar Ang1 | did not pull down any appreciable levels
2 | B1 | strongly and consistently activated Tie2 phosphorylation | – | effectively pulled down the majority

— article PMC4459817, “Vasculotide reduces endothelial permeability and tumor cell extravasation in the absence of binding to or agonistic activation of Tie2” (EMBO Molecular Medicine, 2015)
